Data reported in patent US20240002380A1, “REV-ERB AGONISTS” (Saint Louis University, priority 2020, published 2024).
Read-outs that look alike come from different tables or passages of the source.

Columns and labels:
REV-ERBα = REV-ERBα (Homo sapiens (Human), UniProt P20393); assay: FRET assay for REV-ERB ligands (REV-ERBα LBD / NCoR ID2 peptide interaction); assay type: biochemical; conditions: TR-FRET, His-tagged REV-ERBα LBD, fluorescein NCoR ID2 peptide; read-out: RevErbα Inhibition IC50
Method: (§1) Example A: FRET Assay for REV-ERB Ligands
(§2) The capacity for compounds to function as ligands for either REV-ERBα or REV-ERBβ was assessed using a fluorescent resonance energy transfer assay that detects the interaction between these receptors and the Nuclear Receptor Corepressor (NCoR) protein (the ID2 corepressor interaction domain peptides is used). This interaction is known to be ligand dependent and thus this assay that can detect an alteration of the affinity of these two proteins is able to detect ligands. The His-tagged ligand binding domain (LBD) of either REV-ERBα or REV-ERBβ and fluorescein labeled NCoR ID2 peptide (Life Technologies #PV4624) is used in these assays. The His-tagged LBDs were expressed in E. coli (amino acids 281-614 REV-ERBα and 381-579 REV-ERBβ) and labeled with a Terbium (Tb) labeled anti-His antibody (Life Technologies #PV5895). The assay buffer was PBS (phosphate buffered saline) with 5 mM DTT (dithiothreitol). The final concentration of various reagents in the assay are: REV-ERB LBD (either isoform) [5 nM], Fluorescein labeled NCoR ID2 peptide [250 nM], Tb labeled anti-his antibody [10 nM], dimethylsulfoxide [1%] and test compound [varying concentrations]. The assay was performed in Corning NBS black 384-well plates in a total volume of 20 μl. The assay plate was incubated for 1 hour at room temperature protected from light and then TR-FRET was assessed on a Biotek plate reader with the following excitation/emission pairs (340 nm/495 nm and 340 nm/520 nm. The 520 nm/495 nm emission signal ratio was used as an indicator of the degree of interaction between the LBD and NCoR peptide and EC50's were calculated using GraphPad Prizm software.

REV-ERBβ = REV-ERBβ (Homo sapiens (Human), UniProt Q14995); assay: FRET assay for REV-ERB ligands (REV-ERBβ LBD / NCoR ID2 peptide interaction); assay type: biochemical; conditions: TR-FRET, His-tagged REV-ERBβ LBD, fluorescein NCoR ID2 peptide; read-out: RevErbβ Inhibition IC50
Chain of REV-ERBβ (Q14995 381-579): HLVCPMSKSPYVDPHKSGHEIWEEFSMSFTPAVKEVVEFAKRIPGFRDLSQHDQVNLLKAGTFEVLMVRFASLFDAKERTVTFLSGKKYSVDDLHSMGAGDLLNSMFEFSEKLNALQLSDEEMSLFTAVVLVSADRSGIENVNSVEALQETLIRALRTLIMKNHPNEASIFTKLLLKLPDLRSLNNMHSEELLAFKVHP
Method: as §1, §2

[1] = Plasma pharmacokinetics after intraperitoneal injection in mice; assay type: in vivo; conditions: mouse, 5 mg/kg IP; for Vd/F: read-out: Vz/F
Method: Example B: Pharmacokinetics of Selected Compounds
Mice were injected intraperitoneally with (5 mg/kg) of the compound of Example 71 or Example 78 and plasma samples were taken at intervals of […], 0.25 hr, 0.5 hr. 1.0 hr, 3.0 hr, and 6.0 hr post-administration in order to analyze the pharmacokinetic profile of these compounds. The mean plasma content for male and for female mice at these time points post-injection are shown for Example 71 in FIG. 1A and Table 3, and for Example 78, in FIG. 1B and Table 4.

[2] = system: senescence accelerated mouse P8 (SAMP8) mouse model; conditions: SAMP8 mice, AD-like pathology; cited from earlier work

Chain of REV-ERBα (P20393 281-614): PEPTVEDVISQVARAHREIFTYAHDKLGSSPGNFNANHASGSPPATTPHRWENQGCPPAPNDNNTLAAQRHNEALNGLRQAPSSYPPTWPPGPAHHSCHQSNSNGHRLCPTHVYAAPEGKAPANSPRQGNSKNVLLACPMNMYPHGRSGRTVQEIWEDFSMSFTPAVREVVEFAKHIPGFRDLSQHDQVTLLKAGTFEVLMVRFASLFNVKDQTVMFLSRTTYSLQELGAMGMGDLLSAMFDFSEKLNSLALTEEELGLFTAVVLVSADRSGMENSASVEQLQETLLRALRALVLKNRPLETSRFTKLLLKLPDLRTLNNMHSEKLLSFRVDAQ

SMILES	IC50 (REV-ERBα) [nM]	IC50 (REV-ERBβ) [nM]	also measured
Cn1cnc2ccc(Oc3ccccc3-c3ccccc3)nc21 [Example 3, 5-([1,1′-biphenyl]-2-yloxy)-3-methyl-3H-imidazo[4,5-b]pyridine]	250 to 1000	≤ 250	
Cc1cccc(-c2ccccc2Oc2ccc3ncn(C)c3n2)c1 [Example 4, 3-methyl-5-(3′-methylbiphenyl-2-yloxy)-3H-imidazo[4,5-b]pyridine]		≤ 250	
Cn1cnc2ccc(Oc3ccccc3-c3cccc(F)c3)nc21 [Example 5, 5-(3′-fluorobiphenyl-2-yloxy)-3-methyl-3H-imidazo[4,5-b]pyridine]	≤ 250	250 to 1000	
Cn1cnc2ccc(Oc3ccccc3-c3cccnc3)nc21 [Example 6, 3-methyl-5-(2-(pyridin-3-yl)phenoxy)-3H-imidazo[4,5-b]pyridine]	≤ 250		
Cn1ncc2cnc(Oc3ccccc3-c3cccnc3)nc21 [Example 10, 1-methyl-6-(2-(pyridin-3-yl)phenoxy)-1H-pyrazolo[3,4-d]pyrimidine]	≤ 250	≤ 250	
Cc1cccc(-c2ccccc2Oc2ccc3cnn(C)c3n2)c1 [Example 13, 1-methyl-6-(3′-methylbiphenyl-2-yloxy)-1H-pyrazolo[3,4-b]pyridine]	> 1000		
Cn1ncc2ccc(Oc3ccccc3-c3cccc(F)c3)nc21 [Example 14, 6-(3′-fluorobiphenyl-2-yloxy)-1-methyl-1H-pyrazolo[3,4-b]pyridine]	250 to 1000		
CNc1cccc(-c2ccccc2Oc2ncc3ccn(C)c3n2)c1 [Example 17, N-methyl-2′-(7-methyl-7H-pyrrolo[2,3-d]pyrimidin-2-yloxy)biphenyl-3-amine]	≤ 250		
Cc1nn(C)c2cnc(Oc3ccccc3-c3ccccc3)nc12 [Example 21, 5-([1,1′-biphenyl]-2-yloxy)-1,3-dimethyl-1H-pyrazolo[4,3-d]pyrimidine]	> 1000		
c1ccc(-c2ccccc2Oc2ncc3cnccc3n2)cc1 [Example 22, 2-(biphenyl-2-yloxy)pyrido[4,3-d]pyrimidine]	≤ 250		
c1ccc(-c2ccccc2Oc2ccc3cnccc3n2)cc1 [Example 24, 2-(biphenyl-2-yloxy)-1,6-naphthyridine]	≤ 250		
FC(F)(F)c1cc(Oc2ccccc2-c2ccccc2)nc2ccccc12 [Example 34, 2-([1,1′-biphenyl]-2-yloxy)-4-(trifluoromethyl)quinoline]		> 1000	
COc1ccc2c(C(F)(F)F)cc(Oc3ccccc3-c3ccccn3)nc2c1 [Example 36, 7-methoxy-2-(2-(pyridin-2-yl)phenoxy)-4-(trifluoromethyl)quinoline]	≤ 250		
FC(F)(F)c1ccccc1Oc1ccc2ccncc2n1 [Example 44, 2-(2-(trifluoromethyl)phenoxy)-1,7-naphthyridine]		≤ 250	
c1ccc(-c2ccccc2Oc2ccc3cnccc3n2)nc1 [Example 45, 2-(2-(pyridin-2-yl)phenoxy)-1,6-naphthyridine]	> 1000	≤ 250	
FC(F)(F)c1ccccc1Oc1ccc2cnccc2n1 [Example 46, 2-(2-(trifluoromethyl)phenoxy)-1,6-naphthyridine]	250 to 1000	> 1000	
c1ccc(C2CCCCC2)c(Oc2ccc3ccncc3n2)c1 [Example 48, 2-(2-cyclohexylphenoxy)-1,7-naphthyridine]	≤ 250		
c1ccc(C2CCCCC2)c(Oc2ccc3cnccc3n2)c1 [Example 49, 2-(2-cyclohexylphenoxy)-1,6-naphthyridine]	250 to 1000		
c1ccc(-c2cccc(Oc3ccc4ccncc4n3)c2)cc1 [Example 51, 2-([1,1′-biphenyl]-3-yloxy)-1,7-naphthyridine]		> 1000	
c1ccc2c(Oc3ccc4ccncc4n3)cccc2c1 [Example 54, 2-(naphthalen-1-yloxy)-1,7-naphthyridine]	≤ 250		
c1ccc2c(Oc3ccc4cnccc4n3)cccc2c1 [Example 56, 2-(naphthalen-1-yloxy)-1,6-naphthyridine]	> 1000	> 1000	
c1cc2ccc(OC3CCCCC3)nc2cn1 [Example 57, 2-(cyclohexyloxy)-1,7-naphthyridine]	> 1000		
c1ccc(-c2ccccc2Oc2ccc3ccncc3n2)cc1 [Example 59, 2-([1,1′-biphenyl]-2-yloxy)-1,7-naphthyridine]	≤ 250	≤ 250	
COc1ccc2c(C(F)(F)F)cc(SCC(=O)NCCc3ccc(F)cc3)nc2c1 [Example 62, N-(4-fluorophenethyl)-2-((7-methoxy-4-(trifluoromethyl)quinolin-2-yl)thio)acetamide]	≤ 250		
c1ccc(-c2ccccc2Oc2ccc3ncccc3n2)cc1 [Example 68, 2-([1,1′-biphenyl]-2-yloxy)-1,5-naphthyridine]	250 to 1000	> 1000	
c1ccc2cc(Oc3ccc4ccncc4n3)ccc2c1 [Example 70, 2-(naphthalen-2-yloxy)-1,7-naphthyridine]	≤ 250		
Cc1cc(C)c(Oc2ccc3cnccc3n2)c(-c2ccccc2)c1 [Example 71, 2-((3,5-dimethyl-[1,1′-biphenyl]-2-yl)oxy)-1,6-naphthyridine]			AUC(0-inf) ([1]; female mice): 172 ng·h/mL; AUC(0-t) ([1]; female mice): 169 ng·h/mL; CL/F ([1]; female mice): 484 mL/min/kg; Cmax ([1]; female mice): 345 ng/mL; Tmax ([1]; female mice): 4.98 min; half-life ([1]; female mice): 31.2 min; Vd/F ([1]; female mice): 21.9 L/kg; AUC(0-inf) ([1]; male mice): 225 ng·h/mL; AUC(0-t) ([1]; male mice): 222 ng·h/mL; CL/F ([1]; male mice): 371 mL/min/kg; Cmax ([1]; male mice): 317 ng/mL; Tmax ([1]; male mice): 4.98 min; half-life ([1]; male mice): 28.2 min; Vd/F ([1]; male mice): 15.2 L/kg
COc1ccc(-c2ccc(C(F)(F)F)cc2Oc2ccc3cnccc3n2)cc1 [Example 78, 2-((4′-methoxy-4-(trifluoromethyl)-[1,1′-biphenyl]-2-yl)oxy)-1,6-naphthyridine]			AUC(0-t) ([1]; Table 4, female mice): 137 ng·h/mL; Cmax ([1]; Table 4, female mice): 269 ng/mL; Tmax ([1]; Table 4, female mice): 15 min; AUC(0-t) ([1]; Table 4, male mice): 343 ng·h/mL; CL/F ([1]; Table 4, male mice): 238 mL/min/kg; Cmax ([1]; Table 4, male mice): 330 ng/mL; Tmax ([1]; Table 4, male mice): 15 min; half-life ([1]; Table 4, male mice): 33 min; Vd/F ([1]; Table 4, male mice): 11.3 L/kg
CCOC(=O)N1CCC(CN(Cc2ccc(Cl)cc2)Cc2ccc([N+](=O)[O-])s2)C1 (stereo not shown) [SR9009]			reversing the cognitive decline [2]: effective in reversing the cognitive decline
